From US11884687B2, “Boronated multifunctional targeting drug conjugates, their uses and methods for their preparation” (Hovione Scientia Limited, priority 2017, dated 2024)

How the values were obtained:
4T1 = experiment: MTS cell viability assay (4T1); format: cell-based; conditions: Mus musculus, 4T1 cells
[1] = tested on: MDA-MB-231 human breast cancer cells; experiment: MTS cell viability assay (MDA-MB-231); format: cell-based; conditions: folate-receptor-positive MDA-MB-231 cells
[2] = in vivo; cited from earlier work

SMILES | IC50 (4T1) [nM] | IC50 ([1]; Homo sapiens) [nM] | LD50 [2] [mg/kg] | IC50 [1] [nM]
COCCOCCOCCOc1ccc2c(c1)C(C)=[N+]1c3ccc(C(=O)NCCN=[N+]=[N-])cc3O[B-]1([C@H](CC(C)C)NC(=O)[C@@H](Cc1ccccc1)NC(=O)c1cnccn1)O2 (stereo partly shown) [B-complex 7] | 670 | > 100 |  | 
[Cl-].[Na+] [table salt] |  |  | 3000 | 
CC1=[N+]2c3ccc(C(=O)NCCOCCOCCOCCN=[N+]=[N-])cc3O[B-]2([C@H](CC(C)C)NC(=O)[C@@H](Cc2ccccc2)NC(=O)c2cnccn2)Oc2ccc(OCCOCCOCCOCCN=[N+]=[N-])cc21 (stereo partly shown) [B-complex 9] | 7250 | > 100 |  | 
CC1=[N+]2c3ccc(C(=O)NCCOCCOCCOCCn4nnc5c4CCC4C(CC5)[C@@H]4COC(=O)NCCNC(=O)CC[C@H](NC(=O)c4ccc(NCc5cnc6nc(N)[nH]c(=O)c6n5)cc4)C(=O)O)cc3O[B-]2([C@H](CC(C)C)NC(=O)[C@@H](Cc2ccccc2)NC(=O)c2cnccn2)Oc2ccc(OCCOCCOCCOCCn3nnc4c3CC[C@H]3[C@@H](CC4)[C@H]3COC(=O)NCCNC(=O)CC[C@H](NC(=O)c3ccc(NCc4cnc5nc(N)[nH]c(=O)c5n4)cc3)C(=O)O)cc21 (stereo partly shown) [B-complex 10] |  |  |  | 62
COCCOCCOCCOc1ccc2c(c1)C(C)=[N+]1c3ccc(C(=O)NCCn4nnc5c4CC[C@H]4[C@@H](CC5)[C@H]4COC(=O)NCCNC(=O)CCC(NC(=O)c4ccc(NCc5cnc6nc(N)[nH]c(=O)c6n5)cc4)C(=O)O)cc3O[B-]1([C@H](CC(C)C)NC(=O)[C@@H](Cc1ccccc1)NC(=O)c1cnccn1)O2 (stereo partly shown) [B-complex 8] |  |  |  | 67.5
